Laboratory results published in PubChem BioAssay AID220 (DTP/NCI, 2004).
Several values for one entry are separate records, joined by “and”; a condition that tells them apart may be missing. Equal entries are not always repeated. Records with an inconclusive call do not appear.

Test system: CD8F1 mice, subcutaneous mammary adenocarcinoma, T/C%
Assay: NCI In Vivo Anticancer Drug Screen. Data for tumor model Mammary Adenocarcinoma CD8F1 (subcutaneous) in CD8F1
Conditions: higher = larger tumour
In short: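 Ratio of treated to vehicle-control outcome, based on either survival or tumor size, in mice bearing transplantable tumors given the test compound.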

[1] = endpoint: median tumor weight (est.), dose: 12.5 mg/kg/injection, schedule: Q07DX005 (ip), vehicle: saline with Tween-80
[2] = endpoint: median tumor weight (est.), dose: 25.0 mg/kg/injection, schedule: Q07DX005 (ip), vehicle: saline with Tween-80
[3] = endpoint: median tumor weight (est.), dose: 50.0 mg/kg/injection, schedule: Q07DX005 (ip), vehicle: saline with Tween-80
[4] = endpoint: median tumor weight (est.), dose: 100.0 mg/kg/injection, schedule: Q07DX005 (ip), vehicle: saline with Tween-80
[5] = endpoint: median tumor weight (est.), dose: 200.0 mg/kg/injection, schedule: Q07DX005 (ip), vehicle: saline with Tween-80
[6] = endpoint: median tumor weight change, dose: 62.5 mg/kg/injection, schedule: Q01DX001 (ip), vehicle: saline with Tween-80
[7] = endpoint: median tumor weight change, dose: 125.0 mg/kg/injection, schedule: Q01DX001 (ip), vehicle: saline with Tween-80
[8] = endpoint: median tumor weight change, dose: 250.0 mg/kg/injection, schedule: Q01DX001 (ip), vehicle: saline with Tween-80
[9] = endpoint: median tumor weight (est.), dose: 6.25 mg/kg/injection, schedule: Q07DX005 (ip), vehicle: saline with Tween-80
[10] = endpoint: median tumor weight change, dose: 2000.0 mg/kg/injection, schedule: Q01DX001 (ip), vehicle: saline with Tween-80

## CCOC(=O)c1ccc(NC(=O)Nc2nccs2)cc1
[1]
  T/C: 150 % of control
[2]
  T/C: 46 % of control
[3]
  T/C: 60 % of control
[4]
  T/C: 96 % of control
[5]
  T/C: 49 % of control
endpoint: median tumor weight (est.), dose: 400.0 mg/kg/injection, schedule: Q07DX005 (ip), vehicle: saline with Tween-80
  T/C: 43 % of control

## CC1=NNC(=O)C1CCO (centres undefined)
endpoint: median tumor weight change, dose: 450.0 mg/kg/injection, schedule: Q01DX001 (ip), vehicle: Klucel (hydroxypropylcellulose) (HPC)
  T/C: 102 % of control
endpoint: median tumor weight change, dose: 900.0 mg/kg/injection, schedule: Q01DX001 (ip), vehicle: Klucel (hydroxypropylcellulose) (HPC)
  T/C: 157 % of control
endpoint: median tumor weight change, dose: 1800.0 mg/kg/injection, schedule: Q01DX001 (ip), vehicle: Klucel (hydroxypropylcellulose) (HPC)
  T/C: 189 % of control
endpoint: median tumor weight change, dose: 3600.0 mg/kg/injection, schedule: Q01DX001 (ip), vehicle: Klucel (hydroxypropylcellulose) (HPC)
  T/C: 80 % of control

## ClCc1ccc2ccccc2n1
[6]
  T/C: 69 % of control
[7]
  T/C: 54 % of control
[8]
  T/C: 76 % of control

## O=C(NC1CCCCC1)OCc1c(COC(=O)NC2CCCCC2)c(-c2ccc(Cl)c(Cl)c2)n2c1CCC2
[2]
  T/C: 94 % of control
[3]
  T/C: 72 % of control
[4]
  T/C: 20 % of control
[5]
  T/C: 28 % of control

## O=C(Nc1ccccc1)c1c(O)[nH]c(=S)[nH]c1=O
endpoint: median tumor weight change, dose: 56.0 mg/kg/injection, schedule: Q01DX001 (ip), vehicle: saline with Tween-80
  T/C: 61 % of control
endpoint: median tumor weight change, dose: 112.0 mg/kg/injection, schedule: Q01DX001 (ip), vehicle: saline with Tween-80
  T/C: 80 % of control

## Cn1ccc(=Nc2ccc(NC(=O)c3ccc(N=c4ccn(C)c5ccc([N+](=O)[O-])cc45)cc3[N+](=O)[O-])cc2)cc1
[4]
  T/C: 48 % of control
[5]
  T/C: 124 % of control

## COc1ccc(Cl)[n+]([O-])n1
endpoint: median tumor weight change, dose: 125.0 mg/kg/injection, schedule: Q01DX001 (ip), vehicle: Klucel (hydroxypropylcellulose) (HPC)
  T/C: 79 % of control

## COC(=O)C(F)C(Br)C(=O)OC (centres undefined)
[9]
  T/C: 61 % of control
[1]
  T/C: 87 % of control
[2]
  T/C: 106 % of control
[3]
  T/C: 74 % of control
[4]
  T/C: 77 % of control

## C[C@]12C=CC(=O)C=C1CC[C@@H]1[C@@H]2C(=O)C[C@@]2(C)[C@H]1CC[C@]2(O)C(=O)CO
endpoint: mean tumor weight, dose: 25.0 mg/kg/injection, schedule: Q01DX009 (ip), vehicle: saline
  T/C: 173 % of control
endpoint: mean tumor weight, dose: 37.5 mg/kg/injection, schedule: Q07DX006 (ip), vehicle: saline
  T/C: 37 % of control
endpoint: mean tumor weight, dose: 75.0 mg/kg/injection, schedule: Q07DX005 (ip), vehicle: saline
  T/C: 93 % of control
endpoint: mean tumor weight, dose: 75.0 mg/kg/injection, schedule: Q07DX006 (ip), vehicle: saline
  T/C: 42 % of control
endpoint: mean tumor weight, dose: 75.0 mg/kg/injection, schedule: Q07DX007 (ip), vehicle: saline
  T/C: 10 % of control
endpoint: mean tumor weight, dose: 100.0 mg/kg/injection, schedule: Q01DX009 (ip), vehicle: saline
  T/C: 61 % of control
endpoint: mean tumor weight, dose: 150.0 mg/kg/injection, schedule: Q07DX005 (ip), vehicle: saline
  T/C: 95 % of control
endpoint: mean tumor weight, dose: 150.0 mg/kg/injection, schedule: Q07DX006 (ip), vehicle: saline
  T/C: 23 % of control
endpoint: mean tumor weight, dose: 200.0 mg/kg/injection, schedule: Q07DX005 (ip), vehicle: saline
  T/C: 9 % of control
endpoint: mean tumor weight, dose: 300.0 mg/kg/injection, schedule: Q07DX006 (ip), vehicle: saline
  T/C: 6 % of control
endpoint: mean tumor weight, dose: 400.0 mg/kg/injection, schedule: Q07DX005 (ip), vehicle: saline
  T/C: 21 % of control
endpoint: mean tumor weight, dose: 800.0 mg/kg/injection, schedule: Q07DX005 (ip), vehicle: saline
  T/C: 1 % of control
endpoint: median tumor weight (est.), dose: 100.0 mg/kg/injection, schedule: Q07DX005 (ip), vehicle: Klucel (hydroxypropylcellulose) (HPC)
  T/C: 33 % of control
endpoint: median tumor weight (est.), dose: 200.0 mg/kg/injection, schedule: Q07DX005 (ip), vehicle: Klucel (hydroxypropylcellulose) (HPC)
  T/C: 26 % of control
endpoint: median tumor weight (est.), dose: 400.0 mg/kg/injection, schedule: Q07DX005 (ip), vehicle: Klucel (hydroxypropylcellulose) (HPC)
  T/C: 15 % of control
endpoint: median tumor weight (est.), dose: 800.0 mg/kg/injection, schedule: Q07DX005 (ip), vehicle: Klucel (hydroxypropylcellulose) (HPC)
  T/C: 13 % of control

## O=C1C=CC(=O)O1 (tested in a mixture with another compound)
endpoint: median tumor weight (est.), dose: 25.0 mg/kg/injection, schedule: Q07DX004 (ip), vehicle: saline
  T/C: 76 % of control
endpoint: median tumor weight (est.), dose: 50.0 mg/kg/injection, schedule: Q07DX004 (ip), vehicle: saline
  T/C: 61 % of control
endpoint: median tumor weight (est.), dose: 100.0 mg/kg/injection, schedule: Q07DX004 (ip), vehicle: saline
  T/C: 40 % of control
endpoint: median tumor weight (est.), dose: 200.0 mg/kg/injection, schedule: Q07DX004 (ip), vehicle: saline
  T/C: 81 % of control
endpoint: median tumor weight (est.), dose: 400.0 mg/kg/injection, schedule: Q07DX004 (ip), vehicle: saline
  T/C: 94 % of control

## COc1cccc2c1C(=O)c1c(O)c3c(c(O)c1C2=O)C[C@@](O)(C(C)=O)C[C@@H]3OC1CC(N(Cc2ccccc2)Cc2ccccc2)C(O)C(C)O1 (some centres undefined)
endpoint: median tumor weight (est.), dose: 1.56 mg/kg/injection, schedule: Q07DX005 (ip), vehicle: saline with Tween-80
  T/C: 68 % of control
endpoint: median tumor weight (est.), dose: 3.12 mg/kg/injection, schedule: Q07DX005 (ip), vehicle: saline with Tween-80
  T/C: 72 % of control
[9]
  T/C: 75 % of control
[1]
  T/C: 29 % of control
[2]
  T/C: 9 % of control

## COC1/C=C\C=C(/C)C(=O)NC2=CC(=O)C=C(C2=O)C(OC)C(C)CC(OC)C(OC)C(C)/C=C(/C)C1OC(N)=O (centres undefined)
endpoint: median tumor weight change, dose: 1.88 mg/kg/injection, schedule: Q01DX001 (ip), vehicle: Klucel (hydroxypropylcellulose) (HPC)
  T/C: 103 % of control
endpoint: median tumor weight change, dose: 3.75 mg/kg/injection, schedule: Q01DX001 (ip), vehicle: Klucel (hydroxypropylcellulose) (HPC)
  T/C: 46 % of control

## O=[N+]([O-])O.O=[N+]([O-])O.[NH-]C1CCCCC1[NH-].[Pt+2] (centres undefined)
endpoint: median tumor weight (est.), dose: 0.5 mg/kg/injection, schedule: Q07DX005 (ip), vehicle: dextrose
  T/C: 46 % of control and 52 % of control
endpoint: median tumor weight (est.), dose: 2.0 mg/kg/injection, schedule: Q07DX005 (ip), vehicle: dextrose
  T/C: 50 % of control
endpoint: median tumor weight (est.), dose: 4.0 mg/kg/injection, schedule: Q07DX005 (ip), vehicle: dextrose
  T/C: 29 % of control and 38 % of control
endpoint: median tumor weight (est.), dose: 8.0 mg/kg/injection, schedule: Q07DX005 (ip), vehicle: dextrose
  T/C: 12 % of control and 29 % of control

## CO[C@@H]1[C@H](O)CC[C@]2(CO2)[C@H]1[C@@]1(C)O[C@@H]1CC=C(C)C
endpoint: median tumor weight change, dose: 31.25 mg/kg/injection, schedule: Q01DX001 (ip), vehicle: saline with Tween-80
  T/C: 113 % of control
[6]
  T/C: 100 % of control
[7]
  T/C: 106 % of control
[8]
  T/C: 110 % of control

## Cc1ccc(S(=O)(=O)NC(=O)OC23COCN2COC3)cc1
endpoint: median tumor weight change, dose: 125.0 mg/kg/injection, schedule: Q01DX001 (ip), vehicle: water
  T/C: 170 % of control
[8]
  T/C: 111 % of control
endpoint: median tumor weight change, dose: 500.0 mg/kg/injection, schedule: Q01DX001 (ip), vehicle: saline with Tween-80
  T/C: 90 % of control
endpoint: median tumor weight change, dose: 500.0 mg/kg/injection, schedule: Q01DX001 (ip), vehicle: water
  T/C: 162 % of control
endpoint: median tumor weight change, dose: 1000.0 mg/kg/injection, schedule: Q01DX001 (ip), vehicle: water
  T/C: 222 % of control
[10]
  T/C: 74 % of control
endpoint: median tumor weight change, dose: 2000.0 mg/kg/injection, schedule: Q01DX001 (ip), vehicle: water
  T/C: 184 % of control

## COc1cc(NCCCCCCCNC(C)C)c2nccc(C)c2c1
endpoint: median tumor weight change, dose: 31.25 mg/kg/injection, schedule: Q01DX001 (ip), vehicle: saline
  T/C: 70 % of control
endpoint: median tumor weight change, dose: 62.5 mg/kg/injection, schedule: Q01DX001 (ip), vehicle: saline
  T/C: 72 % of control

## Cl
endpoint: median tumor weight (est.), dose: 25.0 mg/kg/injection, schedule: Q07DX005 (ip), vehicle: saline
  T/C: 93 % of control
endpoint: median tumor weight (est.), dose: 50.0 mg/kg/injection, schedule: Q07DX005 (ip), vehicle: saline
  T/C: 91 % of control
endpoint: median tumor weight (est.), dose: 100.0 mg/kg/injection, schedule: Q07DX005 (ip), vehicle: saline
  T/C: 67 % of control
endpoint: median tumor weight (est.), dose: 200.0 mg/kg/injection, schedule: Q07DX005 (ip), vehicle: saline
  T/C: 93 % of control
endpoint: median tumor weight (est.), dose: 400.0 mg/kg/injection, schedule: Q07DX005 (ip), vehicle: saline
  T/C: 48 % of control

## O=C(O)CC(=O)O.[NH-]C1CCCCC1[NH-].[Pt+2] (centres undefined)
endpoint: median tumor weight (est.), dose: 20.0 mg/kg/injection, schedule: Q07DX005 (ip), vehicle: dextrose
  T/C: 14 % of control
endpoint: median tumor weight (est.), dose: 40.0 mg/kg/injection, schedule: Q07DX005 (ip), vehicle: dextrose
  T/C: 38 % of control
endpoint: median tumor weight (est.), dose: 80.0 mg/kg/injection, schedule: Q07DX005 (ip), vehicle: dextrose
  T/C: 67 % of control

## NC(CCC(=O)NC(CS)C(=O)NCC(=O)O)C(=O)O (centres undefined)
endpoint: median tumor weight change, dose: 125.0 mg/kg/injection, schedule: Q01DX001 (ip), vehicle: saline
  T/C: 74 % of control
endpoint: median tumor weight change, dose: 500.0 mg/kg/injection, schedule: Q01DX001 (ip), vehicle: saline
  T/C: 82 % of control

## COCCCNC1=C(C#N)C(=O)NC(c2cccc([N+](=O)[O-])c2)S1 (centres undefined)
endpoint: median tumor weight change, dose: 1000.0 mg/kg/injection, schedule: Q01DX001 (ip), vehicle: saline with Tween-80
  T/C: 95 % of control and 110 % of control
[10]
  T/C: 79 % of control
